These results are taken from patent US7943576B2, “Methods of using enterostatin as inhibitor of angiogenesis” (priority 2005, dated 2011).

The term Kd denotes the equilibrium constant for the complex coming apart.

Series [1] concerns the target beta subunit of ATP synthase (Homo sapiens, UniProt P06576). To be noted: cited from earlier work.
A further series deals with umbilical veins. Put plainly: human umbilical vein angiogenesis model. Type of series: cell-based. From the text:
In addition, another angiogenesis model was tried, the human umbilical vein model as described by Woltering et al. (61). This model uses discarded umbilical veins to assay the effect of various compounds on angiogenesis.

The test system of the next series is islet cells. To be noted: cited from earlier work.
Series [2] addresses T1, Neuropeptide Y1 receptors (Homo sapiens, UniProt P25929).
T1 sequence (P25929 1-384): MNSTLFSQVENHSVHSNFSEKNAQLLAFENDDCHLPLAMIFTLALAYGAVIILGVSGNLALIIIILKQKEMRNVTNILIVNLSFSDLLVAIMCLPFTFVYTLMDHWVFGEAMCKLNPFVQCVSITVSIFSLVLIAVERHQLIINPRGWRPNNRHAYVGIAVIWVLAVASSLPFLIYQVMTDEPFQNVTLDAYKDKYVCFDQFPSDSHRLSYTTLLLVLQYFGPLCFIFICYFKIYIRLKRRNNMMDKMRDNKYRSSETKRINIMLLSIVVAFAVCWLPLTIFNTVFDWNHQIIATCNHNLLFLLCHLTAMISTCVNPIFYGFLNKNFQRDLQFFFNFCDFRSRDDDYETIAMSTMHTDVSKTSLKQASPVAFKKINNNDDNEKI
The settings on record: cited from earlier work.

Another series deals with GT1-7 cells. Put plainly: microarray gene analysis, GT1-7 cells. Type of series: cell-based. To be noted: GT1-7 cells (counted together with HepG2); 60 minutes; 0.01, 0.1 and 1.0 uM; regulated by at least 1.7×. The procedure:
(§1) HepG2 cells (a human liver carcinoma cell line) and GT1-7 cells (a neuronal cell line) were cultured by standard procedures and incubated with varying concentrations of enterostatin for 60 minutes. At the completion of the incubation period, cells were lysed, recovered from the plates, and extracted for RNA using TRI REAGENT® (Molecular Research Center, Inc, Cincinnati, Ohio). The RNA was then purified using the RNeasy® Mini Kit (Qiagen, Valencia, Calif.). RNA quality was visually assessed using agarose gel electrophoresis and quantified by UV spectrophotometric analysis (A260 and A280 nm). All RNA had A260/A280 ratios greater than 1.75 and less than 2.10. RNA integrity was checked using an RNA 6000 nano lab chip kit (Agilent Technologies, Foster City, Calif.). […]
(§2) Slides were scanned using a GSI Lumonics ScanArray 5000 laser scanner (Perkin Elmer Life Sciences, Inc., Boston, Mass.) at a relatively low and a relatively high laser intensity and expression data was analyzed using the QuantArray V3.0 software package (Perkin Elmer Life Sciences, Inc.). […]

For series [3] the following is noted: cited from earlier work; for duration of action on feeding: single injection.
The conditions of series [4]: humans, intravenous injection; cited from earlier work.
A further series has as its target kappa-opioid receptors (Homo sapiens, UniProt P41145). To be noted: cited from earlier work.
The conditions of series [5]: low affinity binding, brain membrane preparation; cited from earlier work.
The subject of another series is adipose tissue. The experiment in a line: in vitro human adipose tissue angiogenesis assay (fat fragments in fibrin clot). Format: cell-based. The protocol: Tissue Preparation: Discarded fat from human surgery was cut into fragments approximately 1 mm thick and 2 mm in diameter. These fat fragments were placed in 96-well plates loaded with human thrombin solution (0.05 IU in 40 μL double distilled water/well). The fat fragments were placed in the prepared 96-well plates and covered with 100 μl clotting media. The clotting media consisted of fibrinogen (3 mg/ml) (Sigma Chemical Co., St. Louis, Mo.) and ε-amino caproic acid (0.5%) (Sigma Chemical Co., St. Louis, Mo.) in human placental vein angiogenesis model (HPVAM) media. […] The mixture was allowed to clot by incubation in 6% CO2, 94% air at 37° C. in a humidified incubator. After the media had gelled overnight, the fat-containing clot was supplemented with 1 mL HPVAM media containing 20% fetal bovine serum (GibcoBRL, Gaithersburg, Md.). The total volume of each well was 2 mL.
Angiogenic Evaluation: All wells were evaluated for angiogenic sprouting by examination at 40× and 200× magnification by an unbiased observer using an inverted microscope. Angiogenesis was defined by two criteria. First, the number of wells (as a percentage of the total plated) that developed new vessel growth was termed initiation. This was defined by the presence of at least three angiogenic sprouts of approximately 0.5 mm in length growing from the periphery of the fat tissue. The degree of angiogenic response was assessed using a semi-quantitative visual rating scale as described in E. A. Woltering et al., “Development of a novel in vitro human tissue-based angiogenesis assay to evaluate the effect of antiangiogenic drugs,” Ann. Surg., vol. […] The tissue was visually divided into four quadrants. Each quadrant was given a numeric score from 0-4 based on the length and density of the new vessel growth, and on the percentage of the quadrant's circumference involved with the angiogenic response. Numeric results from the four quadrants were summed and expressed as an angiogenic index (AI, 1-16). This rating scale has been validated using multiple independent observers as described in C. Hornick et al., “Inhibition of angiogenic initiation and disruption of newly established human vascular networks by juice of Morinda citrifola (Noni),” Angiogenesis, vol.

In series [6] the test system is SK-N-MC neuroepithelioma cells. To be noted: low affinity binding; cited from earlier work.
The subject of a further series is HepG2 cells. The experiment in a line: microarray gene analysis, HepG2 cells. Type of series: cell-based, human. The settings on record: HepG2 cells (counted together with GT1-7); 60 minutes; 0.01, 0.1 and 1.0 uM; regulated by at least 1.7×. The protocol: as §1, §2
For series [7] the following is noted: occurring mainly into lymphatic system; cited from earlier work.
For a further series, the system named is galanin receptors. The settings on record: cited from earlier work.
The target in series [8] is T2, cholecystokinin A receptors (Homo sapiens, UniProt P32238).
T2 sequence (P32238 1-428): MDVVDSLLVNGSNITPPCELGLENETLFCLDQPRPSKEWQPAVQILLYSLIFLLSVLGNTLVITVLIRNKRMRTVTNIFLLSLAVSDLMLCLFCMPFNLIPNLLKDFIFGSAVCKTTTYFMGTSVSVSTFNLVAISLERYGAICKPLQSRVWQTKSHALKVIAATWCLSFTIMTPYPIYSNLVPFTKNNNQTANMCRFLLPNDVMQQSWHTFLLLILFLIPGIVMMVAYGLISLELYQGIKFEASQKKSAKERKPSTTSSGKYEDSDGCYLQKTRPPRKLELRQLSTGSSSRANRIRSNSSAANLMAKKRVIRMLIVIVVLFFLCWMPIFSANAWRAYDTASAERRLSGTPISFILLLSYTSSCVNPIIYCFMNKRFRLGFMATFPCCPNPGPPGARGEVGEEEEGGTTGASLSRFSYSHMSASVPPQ
The settings on record: cited from earlier work.

Setting [9] is: rats adapted to three-choice macronutrient diet.

“Also recorded” adds a separate entry of the source. Like-named read-outs stand apart in the source and are kept apart here.

Chain of beta subunit of ATP synthase (P06576 48-529): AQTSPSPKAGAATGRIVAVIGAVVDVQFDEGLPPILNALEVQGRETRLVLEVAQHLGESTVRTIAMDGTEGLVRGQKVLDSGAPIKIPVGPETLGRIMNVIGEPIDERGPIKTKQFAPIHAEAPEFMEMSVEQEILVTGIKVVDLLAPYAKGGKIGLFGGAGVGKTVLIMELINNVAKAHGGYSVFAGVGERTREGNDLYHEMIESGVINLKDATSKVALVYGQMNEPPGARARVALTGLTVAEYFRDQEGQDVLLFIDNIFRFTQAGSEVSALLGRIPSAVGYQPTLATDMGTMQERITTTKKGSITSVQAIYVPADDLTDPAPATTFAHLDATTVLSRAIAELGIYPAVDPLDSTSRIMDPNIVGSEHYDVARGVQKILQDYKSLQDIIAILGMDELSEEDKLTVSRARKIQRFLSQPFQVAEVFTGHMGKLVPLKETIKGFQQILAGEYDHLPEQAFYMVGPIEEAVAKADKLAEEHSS
Chain of kappa-opioid receptors (P41145 whole entry): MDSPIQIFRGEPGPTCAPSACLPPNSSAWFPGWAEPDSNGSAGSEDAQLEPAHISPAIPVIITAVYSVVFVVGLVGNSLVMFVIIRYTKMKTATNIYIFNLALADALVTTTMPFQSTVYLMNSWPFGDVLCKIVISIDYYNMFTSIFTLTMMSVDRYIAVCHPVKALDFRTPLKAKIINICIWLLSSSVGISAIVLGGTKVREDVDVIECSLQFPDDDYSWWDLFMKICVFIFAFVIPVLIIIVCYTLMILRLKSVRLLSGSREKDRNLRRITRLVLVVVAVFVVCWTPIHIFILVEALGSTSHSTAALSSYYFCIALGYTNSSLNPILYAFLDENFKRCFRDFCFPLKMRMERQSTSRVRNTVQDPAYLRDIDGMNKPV

For the substance “enterostatin (VPDPR; printed: Val-Pro-Asp-Pro-Arg) [aminoterminal pentapeptide of procolipase released when procolipase is converted into colipase]”, the “binding to purified beta subunit of ATP synthase” value in series [1] was “bind to this purified protein; also recorded: binds to the beta subunit of ATP synthase”. For the same substance, the inhibition of angiogenesis result in the series on umbilical veins was “effective in inhibiting angiogenesis”. Besides, the “insulin secretion from islets” value with islet cells (10^−9 to 10^−5 M, 16.7 mM glucose, dose-dependent) is given as “inhibited insulin secretion from islets”. In addition, the “insulin secretion from isolated pancreatic islets” value with islet cells (doses of 10^−10 to 10^−6M) is given as “inhibit insulin secretion”. The “binding to Neuropeptide Y1 receptors” value in series [2] is recorded as “not to bind”. In addition, the “number of genes related to the angiogenesis pathway upregulated or downregulated” value in the series on GT1-7 cells and in the series with HepG2 cells was 22 genes in each case. The “daily intake of dietary fat” value in [3] (chronic icv administration from mini-osmotic pumps, single-choice HF or two-choice HF/LF diet) was “attenuated the daily intake of dietary fat”. For the same substance, the “carbohydrate or protein intake” value in [3] (setting [9]) is “no effect on either carbohydrate or protein intake”. The “intake of fat macronutrient” value in series [3] (setting [9]) is listed as “reduced intake of the fat macronutrient”. Further, the “duration of action on feeding” value was “lasting up to six hours” in [3] (rats adapted to a six-hour feeding schedule) and “up to 24 hours” in [3] (rats adapted to ad-libitum feeding). In addition, the “intake of HF vs LF diet” value in [3] (two-choice high-fat and low-fat diet paradigm) is “reduced only intake of the HF diet”. Further, the food intake entry in series [4] is “not found to reduce food intake”. In [4], the “subjective feeling of hunger” value is “reduce the subjective feeling of hunger”. For the same substance, in the series with kappa-opioid receptors, the “binding to kappa-opioid receptors” value is given as “not to bind”. Also, the results for the Kd in series [5] and in series [6] were 0.23 µM and 0.04 µM, respectively. The “concentration least inhibitory of angiogenesis as measured by the angiogenic index (FIG. 3)” value with adipose tissue is given as 10^−10 M. The “new blood vessels (photomicrograph, FIG. 1B vs control FIG. 1A)” value in the series on adipose tissue (10^−9 M enterostatin) is listed as “fewer new blood vessels than the control tissue”. Moreover, in the series with adipose tissue (concentrations from about 10^−6 to about 10^−9 M), the angiogenic response result was “effectively blocked the angiogenic response”. The “concentration giving the greatest inhibition of angiogenic index (FIG. 2)” value in the series with adipose tissue (day 15, U-shaped dose response curve) is 10^−9 M. In addition, in the series on adipose tissue (range of 10^−8 to 10^−6 M), the “effect on the angiogenic index (FIG. 2)” value was “dose dependent inhibition”. For the same substance, the “absorption across the intestine” value in series [7] is “limited and slow”. The “binding to galanin receptors” value in the series with galanin receptors was “not to bind”. Also, the “binding to cholecystokinin A receptors” value in series [8] is reported as “not to bind”.

Regarding β-casomorphin1-7 [reference compound], the “binding to purified beta subunit of ATP synthase” value in [1] is reported as “bind to this purified protein”. Besides, the “inhibitory effect on the angiogenic index (FIG. 4 legend)” value in the series on adipose tissue is reported as “lack of an inhibitory effect”. Further, the “effect on angiogenesis (FIG. 4)” value in the series with adipose tissue (concentrations of 10^−6 and 10^−7 M) was “no effect on angiogenesis”.

Regarding APGP-ornithine [reference compound], in [3] (rat, in vivo), the “food intake in rats” value is on record as “shown to affect food intake in rats”. In the series on adipose tissue, the “inhibitory effect on the angiogenic index (FIG. 4 legend)” value is recorded as “lack of an inhibitory effect”. Moreover, the “inhibition of angiogenesis (FIG. 4)” value in the series on adipose tissue (concentrations from 10^−6 to 10^−9 M) is on record as “none of these concentrations of the metabolite inhibited angiogenesis”.
